Results as given in patent US10780057B2, “Casein-based silica dual drug-loading composite microcapsule and preparation method therefor” (SHAANXI UNIVERSITY OF SCIENCE & TECHNOLOGY, priority 2016, dated 2020).

Columns and labels:
[1] = Cumulative drug release from casein-based silica dual drug-loaded composite microcapsule; assay type: physicochemical; conditions: after 40 h; casein-based SiO2 dual-loaded microcapsules; drug A ibuprofen on outer wall of capsule, drug B aspirin in core of capsule
Description: (§1) The samples used in Table 1 were the casein-based SiO2 dual-loaded microcapsules obtained by loading the drug A-buprofen on the outer wall of the capsule and the drug B aspirin in the core of the capsule.

[2] = Drug loading efficiency of casein-based silica dual drug-loaded composite microcapsule; assay type: physicochemical; conditions: casein-based SiO2 dual-loaded microcapsules; drug A ibuprofen on outer wall of capsule, drug B aspirin in core of capsule
Description: as §1

40 h cumulative release rate (%) [1]	Drug loading efficiency (%) [2]	Structure (SMILES)
88%	69%	CC(C)Cc1ccc(C(C)C(=O)O)cc1 (stereo not shown) [Drug A: ibuprofen, ibuprofen]
60%	86%	CC(=O)Oc1ccccc1C(=O)O [Drug B: aspirin, aspirin]
